Test system: Green Peach Aphid (GPA)
Assay: Insecticidal testing for Green Peach Aphid (GPA), foliar spray on infested cabbage seedlings
Type: in vivo
Parameters: key to GPA Control @ 200 ppm: A: 80-100; B: More than 0-Less than 80; C: Not Tested; D: No activity noticed in this bioassay
Conditions: 200 ppm test compound sprayed on cabbage seedlings infested with GPA, graded after three days, Abbott-corrected % control, qualitative rating; for pest or weed control at 200 ppm: Myzus persicae, foliar, 72 h
Source text: Insecticidal Testing for Green Peach Aphid (GPA) GPA is the most significant aphid pest of peach trees, causing decreased growth, shriveling of the leaves, and the death of various tissues. It is also hazardous because it acts as a vector for the transport of plant viruses, such as potato virus Y and potato leafroll virus to members of the nightshade/potato family Solanaceae, and various mosaic viruses to many other food crops. GPA attacks such plants as broccoli, burdock, cabbage, carrot, cauliflower, daikon, eggplant, green beans, lettuce, macadamia, papaya, peppers, sweet potatoes, tomatoes, watercress, and zucchini, among other plants. GPA also attacks many ornamental crops such as carnation, chrysanthemum, flowering white cabbage, poinsettia, and roses. GPA has developed resistance to many pesticides. Certain compounds disclosed in this document were tested against GPA using procedures described as follows. Cabbage seedlings grown in 3-inch pots, with 2-3 small (3-5 cm) true leaves, were used as test substrate. The seedlings were infested with 20-50 GPA (wingless adult and nymph stages) one day prior to chemical application. Four pots with individual seedlings were used for each treatment. Test compounds (2 mg) were dissolved in 2 mL of acetone/methanol (1:1) solvent, forming stock solutions of 1000 ppm test compound. The stock solutions were diluted 5× with 0.025% Tween® 20 (Sigma-Aldrich, Inc., St. Louis, Mo.) in H2O to obtain the solution at 200 ppm test compound. A hand-held aspirator-type sprayer was used for spraying a solution to both sides of […] leaves until runoff. Reference plants (solvent check) were sprayed with the diluent only containing 20% by volume of acetone/methanol (1:1) solvent. Treated plants were held in a holding room for three days at approximately 25° C. and ambient relative humidity (RH) prior to grading. Evaluation was conducted by counting the number of live aphids per plant under a microscope. Percent Control was measured by using Abbott's correction formula (W. S. Abbott, “A Method of Computing the Effectiveness of an Insecticide” J. Econ. Entomol. 18 (1925), pp. 265-267) as follows: Corrected % Control=100*(X−Y)/X • where • X=No. of live aphids on solvent check plants and • Y=No. of live aphids on treated plants The results provided in Table 6 below are based on the qualitative ratings set forth in Table 5.

Structure (SMILES) | pest or weed control at 200 ppm | GPA Control @ 200 ppm
CC(c1ccc(C(F)(F)F)[n+]([O-])c1)S(C)(=O)=N[N+](=O)[O-] (stereo not shown) [(21)] | 80 to 100% | –
CC(c1ccc(Cl)[n+]([O-])c1)S(C)(=O)=NC(N)=O (stereo not shown) [(23)] | – | D
CC(c1ccc(C(F)(F)F)[n+]([O-])c1)S(C)(=O)=NC#N (stereo not drawn) [Compound (6), N-Cyano-S-[1-(6-trifluoromethyl-3-pyridinyl)ethyl]-S-methylsulfoximine N-oxide] | 80 to 100% | –
CS(=O)(Cc1ccc(C(F)(F)F)[n+]([O-])c1)=NC#N (stereo not shown) [(9), [methyl(oxido){[1-oxido-6-(trifluoromethyl)pyridin-3-yl]methyl}-λ^6-sulfanylidene]cyanamide] | 80 to 100% | –
CS(=O)(Cc1ccc(C(F)(F)F)[n+]([O-])c1)=NC(N)=O (stereo not shown) [(22)] | – | D
CC(c1ccc(Cl)[n+]([O-])c1)S(C)(=O)=NC#N (stereo not shown) [(19)] | 80 to 100% | –
CC(C)(c1ccc(C(F)(F)F)[n+]([O-])c1)S(C)(=O)=NC#N (stereo not shown) [(10)] | 80 to 100% | –
CC(c1ccc(C(F)(F)F)[n+]([O-])c1)/S(C)=N\C#N (stereo not shown) [(5)] | 80 to 100% | –
CS(=O)(Cc1ccc(Cl)[n+]([O-])c1)=N[N+](=O)[O-] (stereo not shown) [(20)] | – | D
CC(c1ccc(Cl)[n+]([O-])c1)S(C)(=O)=N[N+](=O)[O-] (stereo not shown) [(18)] | 0 to 80% | –

Source: patent US20140005234A1, “INSECTICIDAL N-SUBSTITUTED SULFILIMINE AND SULFOXIMINE PYRIDINE N-OXIDES” (Dow AgroSciences LLC, priority 2012, published 2014)
